“Also recorded” adds a separate entry of the source. Like-named read-outs stand apart in the source and are kept apart here.
What was measured:
[1] = Cytotoxicity in HFF cells (CellTiter-Glo), concurrent with HCMV assay; type: cell-based; conditions: human
Experimental: (§1) Human foreskin fibroblast (HFF) cells prepared from human foreskin tissue were obtained from the University of Alabama at Birmingham tissue procurement facility with approval from its IRB. The tissue was incubated at 4° C. for 4 h in Clinical Medium consisting of minimum essential media (MEM) with Earl's salts supplemented with 10% fetal bovine serum (FBS) (Hyclone, Inc. Logan UT), L-glutamine, fungizone, and vancomycin. Tissue was then placed in phosphate buffered saline (PBS), minced, rinsed to remove the red blood cells, and resuspended in trypsin/EDTA solution. The tissue suspension was incubated at 37° C. and gently agitated to disperse the cells, which were collected by centrifugation. Cells were resuspended in 4 ml Clinical Medium and placed in a 25 cm^2 flask and incubated at 37° C. in a humidified CO2 incubator for 24 h. The media was then replaced with fresh Clinical Medium and the cell growth was monitored daily until a confluent monolayer had formed. The HFF cells were then expanded through serial passages in standard growth medium of MEM with Earl's salts supplemented with 10% FBS, L-glutamine, penicillin, and gentamycin. The cells were passaged routinely and used for assays at or below passage ^10.37,38
(§2) Each experiment that evaluates the antiviral activity of compounds includes both positive and negative control compounds to ensure the performance of each assay. Concurrent assessment of cytotoxicity was also performed for each study in the same cell line and with the same compound exposure.
(§3) Assays were performed in monolayers as described.37 Cells were seeded in 384 well plates and incubated for 24 h to allow the formation of confluent monolayers. Dilutions of test drug were prepared directly in the plates and the monolayers infected at a predetermined MOI based on virus used. After incubation, cytopathology was determined by the addition of CellTiter-Glo (CTG) reagent. Concentrations of test compound sufficient to reduce CPE by 50% (EC50) or decrease cell viability by 50% (CC50) were interpolated using standard methods in Microsoft Excel. Toxicity was measured using CTG as above.

[2] = test system: HCMV (AD169 strain in HFF cells); test: CPE (cytopathic effect) assay for HCMV; type: cell-based, Human Cytomegalovirus
Experimental: as §1, with “gentamycin.” for “gentamycin. The cells were passaged routinely and used for assays at or below passage ^10.37,38”
(§4) Akata cells were obtained from Louisiana State University, Baton Rouge, LA. The HCMV strain AD169 was obtained from the American Type Culture Collection (ATCC, Manassas, VA). Akata cells latently infected with EBV were obtained from Louisiana State University, Baton Rouge, LA.
as §2
as §3, with “Concentrations of test compound sufficient to reduce CPE by 50% (EC50) or decrease cell viability by 50% (CC50) were interpolated using standard methods in Microsoft Excel.” left out

[3] = Cytotoxicity in Akata cells (CTG), concurrent with EBV assay; type: cell-based; conditions: human, Akata cells (without virus induction), Table 1
Experimental: as §2
Assays for EBV were performed by reported methods.^37 Akata cells were induced to undergo a lytic infection with 50 μg/ml of a goat anti-human IgG antibody. Experimental compounds were diluted within plates. The cells were added and incubated for 72 h. Similar plates were initiated without virus induction/addition and used for measuring cytotoxicity by the addition of CTG. For all assays, the replication of the virus was assessed by the quantification of viral DNA. […] Compound concentrations sufficient to reduce genome copy number by 50% were calculated from experimental data as well as compound cytotoxicity.

[4] = test system: EBV (Akata/Akata); test: EBV assay: viral DNA quantification in induced Akata cells; type: cell-based, Epstein-Barr virus; conditions: for activity against EBV: cell-based assay, highest concentration tested in primary assays 50 μM; for EC50: human gammaherpesvirus 4, Akata
Experimental: as §4, §2
Assays for EBV were performed by reported methods.^37 Akata cells were induced to undergo a lytic infection with 50 μg/ml of a goat anti-human IgG antibody. Experimental compounds were diluted within plates. The cells were added and incubated for 72 h. Similar plates were initiated without virus induction/addition and used for measuring cytotoxicity by the addition of CTG. For all assays, the replication of the virus was assessed by the quantification of viral DNA. For EBV, primers 5′-[…]-3′ and 5′-CAG TTC CTC GCCTTAGGTTG-3 amplified a fragment corresponding to coordinates 96802-97234 in EBV genome (AJ507799). Compound concentrations sufficient to reduce genome copy number by 50% were calculated from experimental data as well as compound cytotoxicity.

[5] = test system: Zika virus; conditions: Vero cells, 1 mM; cited from earlier work
[6] = test system: HIVADA; test: HIV p24 alphaLISA in infected monocyte derived macrophages; type: cell-based, Human Immunodeficiency Virus; conditions: 100 μM, infected MDM, days 2-7, compared with DMSO control
Experimental: Primary human MDMs were cultured from peripheral blood mononuclear cells and pre-treated for 24 h with ddhC (100 μM), compound 8 (100 μM), compound 21 (100 μM), emtricitabine control (15 μM, 10 μM, 1 μM, 0.1 μM), or the drug vehicle, DMSO. MDM were then infected with HIVADA in the presence of these compounds and treated daily (with compound), while culture supernatants were collected to quantify levels of HIV p24, a viral capsid protein, on days 2-7 of infection.
Leukopaks from healthy donors were obtained from the New York Blood Center and processed by Ficoll gradient centrifugation to isolate peripheral blood mononuclear cells (PBMC). These PBMC were cultured adherently into monocyte derived macrophages (MDM), according to published protocols, on 60 mm dishes for 6 days with 10-20 ng/ml macrophage colony stimulating factor (M-CSF). MDM were pre-treated with ddhC, compound 8, compound 21, emtricitabine (Cat. No .: 10071), or DMSO vehicle at indicated concentrations for 24 hours (NIH AIDS Reagent Program, Bethesda, MD). Cells were left uninfected or infected for 24 h in the presence of one of the compounds listed above with 20 ng/mL HIVADA, a macrophage-tropic HIV strain originally derived from a person with HIV (NIH). Media was changed daily with the mentioned compounds added each time, and supernatants were collected on days 2, 3, 4, 5, 6, and 7 of infection. Each treatment condition was analyzed in duplicate plates per experiment.
Supernatant samples were analyzed for the viral capsid protein, HIV p24, by a sensitive p24 alphaLISA according to the manufacturer's protocol (Perkin-Elmer, Waltham, MA). Treatment conditions were analyzed in duplicate plates, and each supernatant was analyzed in duplicate on a 96-well alphaLISA plate. These were then fit to a sigmoid standard curve to extrapolate HIV p24 levels in pg/mL within the assay limits of detection.

[7] = Human betaherpesvirus 5, AD169 strain in HFF cells, Table 1, read-out: HCMV EC50
[8] = Akata/Akata, Table 1, read-out: EBV EC50
[9] = read-out: Result for compound (EC50/UM), EBV Akata/Akata, assay order Primary

| Compound | CC50 [1] [µM] | EC50 ([2]; Human betaherpesvirus 5, AD169, HFF, approximate, read-out: EC50 against HCMV) [µM] | EC50 [2, 7] [µM] | CC50 at 72 h [3] [µM] | activity against EBV [4] | EC50 [4, 8] [µM] | EC50 [4, 9] [µM] | EC50 ([4]; read-out: EC50 against EBV) [µM] | CC50 ([1]; HFF cells, Table 1, read-out: HCMV CC50) [µM] | EC50 ([2]; Human betaherpesvirus 5, AD169, HFF, read-out: HCMV EC50) [µM] | antiviral activity against HCMV [2] | Zika virus proliferation [5] | levels of HIV p24 viral capsid protein [6] |
| --- | --- | --- | --- | --- | --- | --- | --- | --- | --- | --- | --- | --- | --- |
| CC(C)C(=O)OCC1=C[C@@H](O)[C@H](n2ccc(NO)nc2=O)O1 [Compound 10, 3′-Deoxy-3′,4′-didehydro-4-N-hydroxy-5′-O-isobutyroyl-cytidine] | > 50 | ~0.03 | 0.03 | > 50 | slightly diminishes the activity | 29.9 | 29.9 | 7.6 to 38.7 |  |  |  |  |  |
| Nc1nc(O)c2ncn(COC(CO)CO)c2n1 [Ganciclovir, ganciclovir, reference compound] |  |  |  |  |  |  |  |  | > 150 | 0.55 |  |  |  |
| Nc1ccn([C@@H]2OC(CO)=C[C@H]2O)c(=O)n1 [ddhC, 3′-Deoxy-3′,4′-didehydro-cytidine, reference compound] | > 50 |  | > 50 | > 50 | five-fold less active than compound 8; also recorded: only weakly inhibited | 38.7 | 38.7 | 7.6 to 38.7 |  |  | does not display antiviral activity | reduce Zika virus proliferation | no reduction |

— patent US20240287123A1 (Victoria Link Limited, priority 2021, published 2024)
